{"source": "patent US7763273B2", "about": "“Method for reducing methane production emanating from the digestive activities of an animal” (DSM IP Assets B.V., priority 2002, dated 2010)", "test_system": "strained rumen fluids", "experiment": "In vitro incubation of sheep rumen fluid with ground diet: formation of methane and VFA", "assay_type": "cell-based", "set-up": "Methane production / Total VFA: unit not given here", "details": "for Effect on the formation of VFA (in words) / Effect on the formation of methane (in words): in vitro, versus control", "experimental": "The efficacy of some essential oil compounds obtainable from plants was tested regarding their influence on the formation of methane and VFA in an in vitro system.\nAccording to the test 200 mg of a ground diet, containing 50% hay, 30% barley, 9.5% molasses, 10% fishmeal and 0.5% vitamins, was added to wheaton bottles. To a triplicate of bottles containing the diet, 0.6 ml of a dissolution of one of the essential oil compounds mentioned in the table below, into propylene glycol was added to each bottle.\nThree sheep were fed on the ground diet and strained rumen fluids in amounts of 500 ml were mixed with 1000 ml of Colemans Simplex buffer. The buffer had the following composition.\n30 ml of the combined rumen fluid and the buffer were then introduced into the bottles, and their contents were incubated under CO2 at 39° C. for 24 hours. The methane production and the total amount of VFA was then measured. […]", "key": {"[1]": {"details": "0.6 ml dissolution in propylene glycol per bottle, 200 mg diet, 30 ml rumen fluid/buffer, under CO2, 39° C., 24 hours"}}, "data": [{"molecule": "c1ccc2ncccc2c1", "note": "[Quinoline]", "values": [{"measurement": "Effect on the formation of VFA (in words)", "result": "promoting effect"}, {"measurement": "Effect on the formation of methane (in words)", "result": "methane-reducing effect"}]}, {"molecule": "Cc1ccc(C(C)C)c(O)c1", "note": "[Thymol]", "values": [{"measurement": "Effect on the formation of VFA (in words)", "result": "notable reducing effect"}, {"measurement": "Effect on the formation of methane (in words)", "result": "strong methane-reducing effect"}]}, {"molecule": "Vanilla", "values": [{"measurement": "Methane production", "setting": "[1]", "result": 1055}, {"measurement": "Total VFA", "setting": "[1]", "result": 1300}, {"measurement": "Effect on the formation of VFA (in words)", "result": "promoting effect"}, {"measurement": "Effect on the formation of methane (in words)", "result": "methane-reducing effect"}]}]}
